Assay results as given in US20090197856A1, “ANTIVIRAL COMPOUNDS” (Genelabs Technologies, Inc., priority 2007, published 2009).

Target: T1, HCV-NS5b (Hepatitis C virus genotype 1b, UniProt Q9WMX2)
T1 construct: (His)6 (C); made in house; host or cells: XL-1 cells (E. coli), IPTG-inducible plasmid
Assay: HCV-NS5b enzyme assay using homopolymer substrate
Assay type: biochemical
Conditions: not given
Source text: The coding sequence of NS5b protein was cloned by PCR from pFKI389luc/NS3-3′/ET as described by Lohmann, V., et al. (1999) Science 285, 110-113 using the primers shown on page 266 of WO 2005/012288
The cloned fragment is missing the C terminus 21 amino acid residues. The cloned fragment was inserted into an IPTG-inducible (isopropyl-β-D-thiogalactopyranoside) expression plasmid that provides an epitope tag (His)6 at the carboxy terminus of the protein.
The recombinant enzyme was expressed in XL-1 cells and after induction of expression, the protein was purified using affinity chromatography on a nickel-NTA (nitrilotriacetic acid) column. Storage condition was 10 mM Tris-HCl pH 7.5, 50 mM NaCl, 0.1 mM EDTA (ethylenediaminetetraacetic acid), 1 mM DTT (dithiothreotol), 20% glycerol at −20° C.
The polymerase activity was assayed by measuring incorporation of radiolabeled UTP into a RNA product using a biotinylated, homopolymeric template. The template was formed by annealing adenosine homopolymer to uridine 20-mer capped with a 5′-biotin group (biotin-U^20) in the ratio of 1:4. Typically, the assay mixture (50 μL) contained 25 mM Tris-HCl (pH 7.5), 40 mM KCl, 0.3 mM MgCl2, 0.05 mM EDTA, 0.2 unit/μL Superase RNAse Inhibitor, 5 mM DTT, 30 μM UTP (Uridine triphosphate), including [^3H]-UTP (uridine triphosphate) at 0.4 μCi/μL with final concentration of 1 μM, and 50 nM of homopolymeric template. Test compounds were initially dissolved in 100% DMSO and further diluted in aqueous buffer containing 5% DMSO. Typically, compounds were tested at concentrations between 2 nM and 50 μM. Reactions were started with addition of enzyme and allowed to continue at 30° C. for 90 minutes. Reactions were quenched with 8 μL of 100 mM EDTA and reaction mixtures (30 μL) were transferred to streptavidin-coated scintillation proximity microtiter plates (FlashPlates) and incubated at room temperature overnight. Incorporation of radioactivity was determined by scintillation counting.
Inhibitor IC50 values were determined by adding test compound as ten point, two-fold serial dilutions in 100% DMSO with a final reaction concentration of 5%. IC50 was calculated by plotting the % inhibition against compound concentration and fitting the data to a constrained four parameter sigmoidal curve, equivalent to the “four parameter logistic equation”:
Where Bottom is the minimum Y value, Top is the maximum Y value, and Hillslope is the slope of the linear portion of the semi-log curve. Top and Bottom were constrained to values of 0% and 100%, respectively. These analyses were performed using Graphpad Prism v.4.0 (Graphpad Software, Inc.) in conjunction with DS Accord for EXCEL 6.0 (Accelrys, Microsoft Corp.).
The table below lists the IC50 values of compounds determined using the homopolymer substrates.

| SMILES | IC50 |
| --- | --- |
| O=C(O)c1ccc2c(C3CCCCC3)c3n(c2c1)CCCn1cc(C2=CCNCC2)c2cccc-3c21 [Compound 397] | 218 nM |
| CC(=O)c1cn2c3c(cccc13)-c1c(C3CCCCC3)c3ccc(C(=O)O)cc3n1CCC2 [Compound 402] | 168 nM |
| CCN(CC)CCC(=O)c1cn2c3c(cccc13)-c1c(C3CCCCC3)c3ccc(C(=O)O)cc3n1CCC2 [Compound 429] | 99 nM |
| CC(C)NCCC(=O)c1cn2c3c(cccc13)-c1c(C3CCCCC3)c3ccc(C(=O)O)cc3n1CCC2 [Compound 430] | 73 nM |

Same assay, conditions: homopolymer substrate, [3H]-UTP incorporation, 30° C., 90 minutes; read-out: IC50

| SMILES | IC50 |
| --- | --- |
| CS(=O)(=O)NC(=O)c1ccc2c(C3CCCCC3)c3n(c2c1)CCCn1cc(CN2CCCCC2)c2cccc-3c21 [Compound 373] | 153 nM |
| CN(C)S(=O)(=O)NC(=O)c1ccc2c(C3CCCCC3)c3n(c2c1)CCCn1cc(CN2CCCCC2)c2cccc-3c21 [Compound 375] | 177 nM |
| O=C(O)c1ccc2c(C3CCCCC3)c3n(c2c1)CCCn1cc(CNCc2cccnc2)c2cccc-3c21 [Compound 386] | 196 nM |
| CCC1CN2CCCn3c(c(C4CCCCC4)c4ccc(C(=O)O)cc43)-c3cccc1c32 (stereo not shown) [Compound 403] | 207 nM |
| O=C(O)c1ccc2c(C3CCCCC3)c3n(c2c1)CCCn1c(C(=O)NCCN2CCCCC2)cc2cccc-3c21 [Compound 404] | 257 nM |
| CN(C)C(=O)c1cc2cccc3c2n1CCCn1c-3c(C2CCCCC2)c2ccc(C(=O)O)cc21 [Compound 405] | 139 nM |
| O=C(O)c1ccc2c(C3CCCCC3)c3n(c2c1)CCCn1c(C(=O)N2CCCCC2)cc2cccc-3c21 [Compound 406] | 136 nM |
| O=C(O)c1ccc2c(C3CCCCC3)c3n(c2c1)CCCn1c(C(=O)O)cc2cccc-3c21 [Compound 407] | 253 nM |
| CCN(CC)C1CCN(C(=O)c2cc3cccc4c3n2CCCn2c-4c(C3CCCCC3)c3ccc(C(=O)O)cc32)CC1 [Compound 408] | 142 nM |
| CN1CCN(C(=O)c2cc3cccc4c3n2CCCn2c-4c(C3CCCCC3)c3ccc(C(=O)O)cc32)CC1 [Compound 409] | 114 nM |
| CCN(C)Cc1c(C(=O)N(C)C)n2c3c(cccc13)-c1c(C3CCCCC3)c3ccc(C(=O)O)cc3n1CCC2 [Compound 410] | 384 nM |
| CN(C)Cc1cc2cccc3c2n1CCCn1c-3c(C2CCCCC2)c2ccc(C(=O)O)cc21 [Compound 411] | 277 nM |
| CN1CCN(C(=O)c2c(Cl)c3cccc4c3n2CCCn2c-4c(C3CCCCC3)c3ccc(C(=O)O)cc32)CC1 [Compound 412] | 179 nM |
| NC(=O)c1cc2cccc3c2n1CCCn1c-3c(C2CCCCC2)c2ccc(C(=O)O)cc21 [Compound 413] | 105 nM |
| O=C(O)c1ccc2c(C3CCCCC3)c3n(c2c1)CCCn1c(CN2CCCCC2)cc2cccc-3c21 [Compound 414] | 98 nM |
| CN1CCN(Cc2cc3cccc4c3n2CCCn2c-4c(C3CCCCC3)c3ccc(C(=O)O)cc32)CC1 [Compound 415] | 170 nM |
| O=C(O)c1ccc2c(C3CCCCC3)c3n(c2c1)CCCn1c2c-3cccc2c2c(=O)[nH][nH]c(=O)c21 [Compound 416] | 146 nM |
| CNC(=O)c1cc2cccc3c2n1CCCn1c-3c(C2CCCCC2)c2ccc(C(=O)O)cc21 [Compound 417] | 99 nM |
| NCc1cc2cccc3c2n1CCCn1c-3c(C2CCCCC2)c2ccc(C(=O)O)cc21 [Compound 418] | 144 nM |
| CC(C)N1Cc2c(n3c4c(cccc24)-c2c(C4CCCCC4)c4ccc(C(=O)O)cc4n2CCC3)C1=O [Compound 419] | 180 nM |
| O=C(O)c1ccc2c(C3CCCCC3)c3n(c2c1)CCCn1c2c(c4cccc-3c41)CN(C1CCCCC1)C2=O [Compound 421] | 472 nM |
| O=C(O)c1ccc2c(C3CCCCC3)c3n(c2c1)CC1(CC1)Cn1cc(CN2CCCCC2)c2cccc-3c21 [Compound 427] | 121 nM |
| CCN(C)Cc1cn2c3c(cccc13)-c1c(C3CCCCC3)c3ccc(C(=O)O)cc3n1CC1(CC1)C2 [Compound 428] | 166 nM |
| O=C(O)c1ccc2c(C3CCCCC3)c3n(c2c1)CCCn1cc(/C(Cl)=C/CN2CCCCC2)c2cccc-3c21 [Compound 431] | 201 nM |
| CCN(CC)CC#Cc1cn2c3c(cccc13)-c1c(C3CCCCC3)c3ccc(C(=O)O)cc3n1CCC2 [Compound 432] | 324 nM |

Now from value to molecule:

| IC50 | SMILES |
| --- | --- |
| 158 nM | CC(C)CNCc1cn2c3c(cccc13)-c1c(C3CCCCC3)c3ccc(C(=O)O)cc3n1CCC2 [Compound 367] |
| 303 nM | CN(C)CCNCc1cn2c3c(cccc13)-c1c(C3CCCCC3)c3ccc(C(=O)O)cc3n1CCC2 [Compound 368] |
| 171 nM | CN(C)C(=O)CNCc1cn2c3c(cccc13)-c1c(C3CCCCC3)c3ccc(C(=O)O)cc3n1CCC2 [Compound 369] |
| 94 nM | O=C(O)c1ccc2c(C3CCCCC3)c3n(c2c1)CCCn1cc(CNC2CCCOC2)c2cccc-3c21 (stereo not shown) [Compound 370] |
| 109 nM | O=C(O)c1ccc2c(C3CCCCC3)c3n(c2c1)CCCn1cc(CNC2CCCC2)c2cccc-3c21 [Compound 371] |
| 106 nM | CNCc1cn2c3c(cccc13)-c1c(C3CCCCC3)c3ccc(C(=O)O)cc3n1CCC2 [Compound 372] |
| 365 nM | O=C(NC1CC1)c1ccc2c(C3CCCCC3)c3n(c2c1)CCCn1cc(CN2CCCCC2)c2cccc-3c21 [Compound 374] |
| 641 nM | CCN(C)Cc1cn2c3c(cccc13)-c1c(C3CCCCC3)c3ccc(C(=O)OC)cc3n1CCC2 [Compound 376] |
| 199 nM | O=C(O)c1ccc2c(C3CCCCC3)c3n(c2c1)CCCn1cc(CNC2CCCCC2)c2cccc-3c21 [Compound 378] |
| 117 nM | CCC(C)NCc1cn2c3c(cccc13)-c1c(C3CCCCC3)c3ccc(C(=O)O)cc3n1CCC2 (stereo not shown) [Compound 379] |
| 93 nM | O=C(O)CNCc1cn2c3c(cccc13)-c1c(C3CCCCC3)c3ccc(C(=O)O)cc3n1CCC2 [Compound 380] |
| 117 nM | COCCNCc1cn2c3c(cccc13)-c1c(C3CCCCC3)c3ccc(C(=O)O)cc3n1CCC2 [Compound 381] |
| 141 nM | CC1CCC(C)N1Cc1cn2c3c(cccc13)-c1c(C3CCCCC3)c3ccc(C(=O)O)cc3n1CCC2 (stereo not shown) [Compound 382] |
| 85 nM | O=C(O)c1ccc2c(C3CCCCC3)c3n(c2c1)CCCn1cc(CNC2CCC2)c2cccc-3c21 [Compound 383] |
| 65 nM | O=C(O)c1ccc2c(C3CCCCC3)c3n(c2c1)CCCn1cc(CN[C@H]2CC[C@H](O)CC2)c2cccc-3c21 [Compound 384] |
| 133 nM | O=C(O)c1ccc2c(C3CCCCC3)c3n(c2c1)CCCn1cc(CN2CCC(O)CC2)c2cccc-3c21 [Compound 385] |
| 180 nM | CON(C)Cc1cn2c3c(cccc13)-c1c(C3CCCCC3)c3ccc(C(=O)O)cc3n1CCC2 [Compound 387] |
| 159 nM | O=C(O)c1ccc2c(C3CCCCC3)c3n(c2c1)CCCn1cc(CNCCO)c2cccc-3c21 [Compound 388] |
| 237 nM | O=C(O)c1ccc2c(C3CCCCC3)c3n(c2c1)CCCn1cc(CN2CCC(O)C2)c2cccc-3c21 (stereo not shown) [Compound 390] |
| 211 nM | CS(=O)(=O)CCNCc1cn2c3c(cccc13)-c1c(C3CCCCC3)c3ccc(C(=O)O)cc3n1CCC2 [Compound 391] |
| 105 nM | C[C@@H]1CC[C@@H](C)N1Cc1cn2c3c(cccc13)-c1c(C3CCCCC3)c3ccc(C(=O)O)cc3n1CCC2 [Compound 392] |
| 138 nM | CCC(C)(C)NCc1cn2c3c(cccc13)-c1c(C3CCCCC3)c3ccc(C(=O)O)cc3n1CCC2 [Compound 393] |
| 159 nM | O=C(O)c1ccc2c(C3CCCCC3)c3n(c2c1)CCCn1cc(CN2CCS(=O)(=O)CC2)c2cccc-3c21 [Compound 394] |
| 140 nM | NCc1cn2c3c(cccc13)-c1c(C3CCCCC3)c3ccc(C(=O)O)cc3n1CCC2 [Compound 395] |
| 126 nM | CC1Cn2cc(CN3CCCCC3)c3cccc(c32)-c2c(C3CCCCC3)c3ccc(C(=O)O)cc3n2C1 (stereo not shown) [Compound 396] |
| 204 nM | O=C(O)c1ccc2c(C3CCCCC3)c3n(c2c1)CCCn1cc(C2CCNCC2)c2cccc-3c21 [Compound 398] |
| 220 nM | CN1CCC(c2cn3c4c(cccc24)-c2c(C4CCCCC4)c4ccc(C(=O)O)cc4n2CCC3)CC1 [Compound 399] |
| 250 nM | CC(C)N1CCC(c2cn3c4c(cccc24)-c2c(C4CCCCC4)c4ccc(C(=O)O)cc4n2CCC3)CC1 [Compound 400] |
| 140 nM | O=C(O)c1ccc2c(C3CCCCC3)c3n(c2c1)CCCn1cc(C2CCN(CCO)CC2)c2cccc-3c21 [Compound 401] |
